For data set [1] the following is noted: as described in European Patent 0776323; cited from earlier work.
The format of data set [2] is physicochemical. Conditions: pH 6.
A short description of data set [3]: Hygroscopicity study: moisture sorption by Dynamic Vapour Sorption (DVS). It is filed as physicochemical. Conditions: 0 to 75% RH, 30° C. As for the experimental part: The moisture sorptions of the three known polymorphs (α-form, β-form and present invention) of the hemisulphate of 3-(N-methyl-2(R)-pyrrolidinylmethyl)-5-(2-phenylsulphonylethyl)-1H-indole were determined using a Dynamic Vapour Sorption (DVS) Automated Sorption Analyser Model DVS-1 manufactured by Surface Measurements Systems Ltd, UK. Each polymorph was analysed by accurately weighing approximately 25 mg into the sample pan which was then exposed to humidities in the range 0 to 75% RH. The analysis temperature was 30° C. with a nitrogen flow rate of 200 cm^3 min^−1.

Data set [4] can be described thus: Compression studies in an IR bench press. It counts as physicochemical. The note with it: 5 tonnes for 1 minute, 13 mm punch and die set.
Data set [5] is described as follows: Stability study: polymorphic form re-examined by PXRD and DSC. Conditions: stored for seven months under ambient conditions. It counts as physicochemical.
The mark [6] stands for this setting: listed as hemisulphate polymorph of the present invention.

Each structure is given as a SMILES string. In brackets after ≈: the same amount, converted by molar mass. Counter-ions that a name gives are not always drawn.

Regarding `CN1CCC[C@@H]1Cc1c[nH]c2ccc(CCS(=O)(=O)c3ccccc3)cc12` [α-polymorph, 3-(N-methyl-2(R)-pyrrolidinylmethyl)-5-(2-phenylsulphonylethyl)-1H-indole], in data set [1], the “colour change and punch filming during tabletting” value was “giving rise to colour change and punch filming”; the hygroscopicity entry was “hygroscopic”; the polymorphic stability entry is given as “polymorphically unstable”.
Usually solubility stands for the concentration that dissolves in the medium under given conditions. Higher therefore signals a readily soluble substance. In data set [2], `CN1CCC[C@@H]1Cc1c[nH]c2ccc(CCS(=O)(=O)c3ccccc3)cc12` [hydrobromide, 3-(N-methyl-2(R)-pyrrolidinylmethyl)-5-(2-phenylsulphonylethyl)-1H-indole, reference compound] gave a solubility of 2.90 mg/mL.
Regarding `CN1CCC[C@@H]1Cc1c[nH]c2ccc(CCS(=O)(=O)c3ccccc3)cc12` [polymorph of the invention, 3-(N-methyl-2(R)-pyrrolidinylmethyl)-5-(2-phenylsulphonylethyl)-1H-indole], the “hygroscopicity (moisture sorption)” value in data set [3] is “markedly less hygroscopic than either the α- or β-form”; in data set [3] (setting [6]) it was “negligible hygroscopicity”. The “colour change and punch filming upon compression” value in data set [4] was “no significant colour change and no evidence of punch filming”; in data set [4] (setting [6]), “no significant colour change or punch filming”. Moreover, the solubility in data set [2] worked out at 478 mg/mL (≈ 1250 mM). Further, the “polymorphic stability (PXRD and DSC)” value in data set [5] is given as “totally unchanged”; in data set [5] (setting [6]) it was “no change in its polymorphic form”.

(Values after patent US6369094B1, “Polymorphic salt” (Pfizer Inc., priority 1999, dated 2002).)
